# Source: patent US10399939B2, “Tetrahydronaphthalene estrogen receptor modulators and uses thereof” (Genentech, Inc., priority 2015, dated 2019)
# Target: ER-alpha (WT) (Homo sapiens (Human), UniProt P03372)
# Test: Breast Cancer Cell ERa High Content Fluorescence Imaging Degradation Assay (ER-alpha MCF7 HCS)
# Assay type: cell-based
# Settings: for EC50 / ER-alpha (WT) MCF7 HCS (S inf) / ER-alpha (WT) MCF7 HCS (EC50): MCF7 breast cancer cells; for EC50 / ER-alpha (WT) MCF7 HCS (EC50): 4 hours incubation, inflexion point of curve; for ER-alpha (WT) MCF7 HCS (S inf): plateau of the maximal effect (ERa degradation), DMSO and 5 nM Fulvestrant define 0% and 100% changes in ESR1; for degradation activities measured as ER-alpha MCF7 HCS Sinf (%) values (in words): MCF7 cells
# Method: Example 901: Breast Cancer Cell ERa High Content Fluorescence Imaging Degradation Assay
# MCF7 breast cancer cells were seeded on day 1 at a density of 10,000 cells per well in 384 well poly-lysine coated tissue culture plate (Greiner # T-3101-4), in 50 µL/well RPMI (phenol red free), 10% FBS (Charcoal stripped), containing L-glutamine. […] Compounds and controls were dispensed using a Labcyte Echo acoustic dispenser to dispense compounds with a pre-defined serial dilution (1.8×, 10 point, in duplicate) and appropriate backfill and control compounds (final total volume transferred was 417.5 nL and compound dispense volume ranges from 2.5 nL to 417.5 nL; 0.84% DMSO (v/v) final), ultimately producing a concentration range from 0.05 nM to 835 nM. Cell plates were incubated at 37° C., for 4 hours. Fixation and permeabilization were carried out using a Biotek EL406 plate washer and dispenser as follows. Cells were fixed by addition of 15 μL of 16% paraformaldehyde (Electron Microscopy Sciences #15710-S) directly to the 50 μL cell culture medium in each well using the peristaltic pump 5 μL cassette on a Biotek EL406 (final concentration of formaldehyde was 3.7% w/v). Samples were incubated 30 minutes. Well contents was aspirated and 50 μL/well of Phosphate Buffered Saline (PBS) containing 0.5% w/v bovine serum albumen, 0.5% v/v Triton X-100 (Antibody Dilution Buffer) was added to each well. Samples were incubated for 30 minutes. Well contents were aspirated and washed 3 times with 100 μL/well of PBS. Immunofluorescence staining of estrogen receptor alpha (ESR1) was carried out using a Biotek EL406 plate washer and dispenser as follows. The well supernatant was aspirated from the wells and 25 μL/well of anti-ESR1 mAb (F10) (Santa Cruz sc-8002) diluted 1:1000 in Antibody Dilution Buffer was dispensed. Samples were incubated for 2 hours at room temperature. Samples were washed 4 times with 100 μL/well of PBS. 25 μL (microliters)/well of secondary antibody solution (Alexafluor® 488 conjugate anti-mouse IgG (LifeTechnologies #A21202) diluted 1:1000 and Hoechst 33342 1 μg/ml diluted in Antibody Dilution Buffer) were dispensed into each well. Samples were incubated for 2 hours at room temperature. Samples were washed 3 times with 100 μL/well of PBS using a Biotek EL406. Quantitative fluorescence imaging of ESR1 was carried out using a Cellomics Arrayscan V® (Thermo). Fluorescence images of the samples (Channel 1: XF53 Hoechst (DNA stain); Channel 2: XF53 FITC (ESR1 stain)) were acquired using a Cellomics VTI Arrayscan using the Bioapplication “Compartmental Analysis” using the auto-exposure (based on DMSO control wells) setting “peak target percentile” set to 25% target saturation for both channels. Channel 1 (DNA stain) was used to define the nuclear region (Circ). Measurements of “Mean_CircAvgIntCh2”, which is the Alexafluor 488 fluorescence intensity (ESR1) within the nuclear region, was measured on a per cell basis and averaged over all the measured cells. Data analysis was carried out using Genedata Screener Software, with DMSO and 5 nM Fulvestrant treated samples being used to define the 0% and 100% changes in ESR1. The “Robust Fit” method was used to define the inflexion point of curve (EC50) and the plateau of the maximal effect (Sinf).
# Sequence of ER-alpha (WT) (P03372 whole entry): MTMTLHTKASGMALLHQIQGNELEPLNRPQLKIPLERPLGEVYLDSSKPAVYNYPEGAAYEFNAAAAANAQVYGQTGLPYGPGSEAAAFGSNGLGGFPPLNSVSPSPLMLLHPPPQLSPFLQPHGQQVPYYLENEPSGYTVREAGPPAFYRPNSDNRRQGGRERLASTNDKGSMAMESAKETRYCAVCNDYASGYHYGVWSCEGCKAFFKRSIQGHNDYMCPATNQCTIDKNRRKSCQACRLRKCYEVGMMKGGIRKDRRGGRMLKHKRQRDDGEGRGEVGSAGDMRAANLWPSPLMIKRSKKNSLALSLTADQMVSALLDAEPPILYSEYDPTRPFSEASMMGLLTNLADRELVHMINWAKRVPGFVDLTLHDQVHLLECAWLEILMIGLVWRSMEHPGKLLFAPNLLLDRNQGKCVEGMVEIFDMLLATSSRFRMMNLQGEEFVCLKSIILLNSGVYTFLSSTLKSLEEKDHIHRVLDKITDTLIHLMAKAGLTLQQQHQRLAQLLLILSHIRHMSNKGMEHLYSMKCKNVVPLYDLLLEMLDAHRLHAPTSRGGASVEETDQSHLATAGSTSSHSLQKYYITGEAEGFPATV
SMILES,EC50,ER-alpha (WT) MCF7 HCS (S inf),degradation activities measured as ER-alpha MCF7 HCS Sinf (%) values (in words),ER-alpha (WT) MCF7 HCS (EC50)
"Oc1ccc2c(c1)CC[C@H](c1ccccc1)[C@@H]2c1c(F)cc(OCCN2CC(CF)C2)cc1F [Compound 105, (1S,2S)-1-[2,6-difluoro-4-[2-[3-(fluoromethyl)azetidin-1-yl]ethoxy]phenyl]-2-phenyl-tetralin-6-ol]",0.0404 nM,−98.7%,,
"Oc1ccc2c(c1)CC[C@@H](c1ccccc1)[C@H]2c1ccc(NCCN2CC(CF)C2)cc1 [Compound 138, (5S,6R)-5-(4-((2-(3-(fluoromethyl)azetidin-1-yl)ethyl)amino)phenyl)-6-phenyl-5,6,7,8-tetrahydronaphthalen-2-ol]",0.203 nM,−89.89%,,
"Oc1ccc2c(c1)CC[C@H](c1ccccc1)[C@@H]2c1ccc(OCCN2CC(CCl)C2)cc1 [Compound 112, (5R,6S)-5-(4-(2-(3-(chloromethyl)azetidin-1-yl)ethoxy)phenyl)-6-phenyl-5,6,7,8-tetrahydronaphthalen-2-ol]",50.9 nM,−35%,,
"Oc1ccc2c(c1)CC[C@H](c1ccccc1)[C@@H]2c1ccc(NCCN2CC(CF)C2)cc1 [Compound 137, (5R,6S)-5-(4-((2-(3-(fluoromethyl)azetidin-1-yl)ethyl)amino)phenyl)-6-phenyl-5,6,7,8-tetrahydronaphthalen-2-ol]",186 nM,−80%,,
"CN1CC(CCOc2ccc([C@@H]3c4ccc(O)cc4CC[C@@H]3c3ccccc3)cc2)C1 (stereo in doubt) [A, (5R,6S)-5-(4-(2-(1-methylazetidin-3-yl)ethoxy)phenyl)-6-phenyl-5,6,7,8-tetrahydronaphthalen-2-ol, reference compound]",19 nM,−58%,low,
"Oc1ccc2c(c1)CC[C@@H](c1ccccc1)[C@H]2c1ccc(OC2CN(CCCF)C2)cc1 [Compound 129, (5S,6R)-5-(4-((1-(3-fluoropropyl)azetidin-3-yl)oxy)phenyl)-6-phenyl-5,6,7,8-tetrahydronaphthalen-2-ol]",,,,>0.10 µmol
"Oc1ccc2c(c1)CC[C@H](c1ccccc1)[C@@H]2c1ccc(OCCN2CC(CF)C2)cc1 [Compound 101, (1R,2S)-1-[4-[2-[3-(fluoromethyl)azetidin-1-yl]ethoxy]phenyl]-2-phenyl-tetralin-6-ol]",0.371 nM,−100%,,
"Oc1cccc2c1[C@H](c1ccc(OCCN3CC(CF)C3)cc1)[C@H](c1ccccc1)CC2 [Compound 136, (7R,8S)-8-(4-(2-(3-(fluoromethyl)azetidin-1-yl)ethoxy)phenyl)-7-phenyl-5,6,7,8-tetrahydronaphthalen-1-ol]",186 nM,−80%,,
"Oc1ccc2c(c1)CC[C@H](c1ccc(F)cc1)[C@@H]2c1ccc(OCCN2CC(CF)C2)cc1 [Compound 106, (1R,2S)-1-[4-[2-[3-(fluoromethyl)azetidin-1-yl]ethoxy]phenyl]-2-(4-fluorophenyl)tetralin-6-ol]",0.977 nM,−97%,,
"C[C@@H](COc1ccc([C@@H]2c3ccc(O)cc3CC[C@@H]2c2ccccc2)cc1)N1CC[C@@H](CF)C1 [Compound 123, (5R,6S)-5-(4-((S)-2-((R)-3-(fluoromethyl)pyrrolidin-1-yl)propoxy)phenyl)-6-phenyl-5,6,7,8-tetrahydronaphthalen-2-ol]",16.9 nM,−30%,,
"Oc1ccc2c(c1)CC[C@@H](C1CCOCC1)[C@H]2c1ccc(OCCN2CC(CF)C2)cc1 [Compound 109, (5S,6S)-5-(4-(2-(3-(fluoromethyl)azetidin-1-yl)ethoxy)phenyl)-6-(tetrahydro-2H-pyran-4-yl)-5,6,7,8-tetrahydronaphthalen-2-ol]",0.164 nM,−95.2%,,
"C[C@H](CN1CC[C@@H](CF)C1)Oc1ccc([C@@H]2c3ccc(O)cc3CC[C@@H]2c2ccccc2)cc1 [Compound 125, (5R,6S)-5-(4-(((R)-1-((R)-3-(fluoromethyl)pyrrolidin-1-yl)propan-2-yl)oxy)phenyl)-6-phenyl-5,6,7,8-tetrahydronaphthalen-2-ol]",,,,>0.10 µmol
"N#Cc1ccc([C@@H]2CCc3cc(O)ccc3[C@@H]2c2ccc(OCCN3CC(CF)C3)cc2)cc1 [Compound 134, 4-((1S,2R)-1-(4-(2-(3-(fluoromethyl)azetidin-1-yl)ethoxy)phenyl)-6-hydroxy-1,2,3,4-tetrahydronaphthalen-2-yl)benzonitrile]",0.0385 nM,−99.2%,,
"CN1CC(CCOc2ccc([C@H]3c4ccc(O)cc4CC[C@H]3c3ccccc3)cc2)C1 (stereo in doubt) [B, (5S,6R)-5-(4-(2-(1-methylazetidin-3-yl)ethoxy)phenyl)-6-phenyl-5,6,7,8-tetrahydronaphthalen-2-ol, reference compound]",0.026 nM,−43.35%,low,
"Oc1ccc2c(c1)CC[C@@H](c1ccccc1)[C@H]2c1ccc(OCCN2CCC(CF)C2)cc1 (stereo partly drawn) [Compound 114, (5S,6R)-5-(4-(2-(3-(fluoromethyl)pyrrolidin-1-yl)ethoxy)phenyl)-6-phenyl-5,6,7,8-tetrahydronaphthalen-2-ol]",0.1 nM,−94.2%,,
"Oc1cccc2c1[C@@H](c1ccc(OCCN3CC(CF)C3)cc1)[C@@H](c1ccccc1)CC2 [Compound 135, (7S,8R)-8-(4-(2-(3-(fluoromethyl)azetidin-1-yl)ethoxy)phenyl)-7-phenyl-5,6,7,8-tetrahydronaphthalen-1-ol]",29.8 nM,−82%,,
"Oc1ccc2c(c1)CC[C@@H](c1ccccc1)[C@H]2c1ccc(NCCN2CC[C@@H](CF)C2)cc1 [Compound 140, (5S,6R)-5-(4-((2-((R)-3-(fluoromethyl)pyrrolidin-1-yl)ethyl)amino)phenyl)-6-phenyl-5,6,7,8-tetrahydronaphthalen-2-ol]",0.773 nM,−45%,,
"N#Cc1ccc([C@H]2CCc3cc(O)ccc3[C@H]2c2ccc(OCCN3CC(CF)C3)cc2)cc1 [Compound 133, 4-((1R,2S)-1-(4-(2-(3-(fluoromethyl)azetidin-1-yl)ethoxy)phenyl)-6-hydroxy-1,2,3,4-tetrahydronaphthalen-2-yl)benzonitrile]",53 nM,−30%,,
"CS(=O)(=O)c1ccc([C@H]2CCc3cc(O)ccc3[C@H]2c2ccc(OCCN3CC(CF)C3)cc2)cc1 [Compound 117, (5R,6S)-5-(4-(2-(3-(fluoromethyl)azetidin-1-yl)ethoxy)phenyl)-6-(4-(methylsulfonyl)phenyl)-5,6,7,8-tetrahydronaphthalen-2-ol]",0.227 nM,−91.4%,,
"Oc1ccc2c(c1)CC[C@@H](c1ccccc1)[C@H]2c1ccc(NC2CN(CCCF)C2)cc1 [Compound 131, (5S,6R)-5-(4-((1-(3-fluoropropyl)azetidin-3-yl)amino)phenyl)-6-phenyl-5,6,7,8-tetrahydronaphthalen-2-ol]",13.8 nM,−35%,,
"Oc1ccc2c(c1)CC[C@H](c1ccccc1)[C@@H]2c1ccc(OCCN2CCC(CF)C2)cc1 (stereo partly drawn) [Compound 111, (5R,6S)-5-(4-(2-(3-(fluoromethyl)pyrrolidin-1-yl)ethoxy)phenyl)-6-phenyl-5,6,7,8-tetrahydronaphthalen-2-ol]",47 nM,−55%,,
